In patent US6518399B1, “Receptor” (Smithkline Beecham Corporation, priority 1998, dated 2003):
Values belong to the molecule of their own block, whether it stands above or below them.

B2: GABAB-R2 C-terminal domain, GAL4 fusion (receptor, not shown: small tags and cut ends)
chain: VPKLITLRTNPDAATQNRRFQFTQNQKKEDSKTSTSVTSVNQASTSRLEGLQSENHRLRMKITELDKDLEEVTMQLQDTPEKTTYIKQNHYQELNDILNLGNFTESTDGGKAILKNHLDQNPQLQWNTTEPSRTCKDPIEDINSPEHIQRRLSLQLPILHHAYLPSIGGVDASCVSPCVSPTASPRHRHVPPSFRVMVSGL
notes: Only the intracellular C-terminal domain of GABAB-R2 was used; also called GABAB-R2 C-terminus; YTH HITS

Key:
[1] = tested on: GABAB-R1a, GABAB-R1b or GABAB-R2 receptors expressed alone; format: cell-based, human; details: for Functional response, CFTR or GIRK1/4 current: GABAB-R1a, GABAB-R1b or GABAB-R2 expressed singly with CFTR or GIRK1/4
Method: Adult female Xenopus laevis (Blades Biologicals) were anaesthetised using 0.2% tricaine (3-aminobenzoic acid ethyl ester), killed and the ovaries rapidly removed. […] Single stage V and VI oocytes were transferred to ND96 solution (96 mM NaCl, 2 mM KCl, 1 mM MgCl2, 1.8 mM CaCl2, 5 mM HEPES; pH 7.5 at 25° C.) which contained 50 μg ml^−1 gentamycin and stored at 18° C.
GABAB-R1a, GABAB-R1b (both in pcDNA3.1rev, Invitrogen), GABAB-R2, GIRK1, GIRK4 (in pcDNA3) and cystic fibrosis transmembrane regulator (CFTR; in pBluescript, Stratagene) were linearised and transcribed to RNA using T7 or T3 polymerase (Promega Wizard kit). m′G(5′)pp(5′)GTP capped cRNA was injected into oocytes (20-50 nl of 1 μgμl^−1 RNA per oocyte) and whole-cell currents were recorded using two-microelectrode voltage-clamp (Geneclamp amplifier, Axon instruments Inc.) 3 to 7 days post-RNA injection. […] In all experiments oocytes were voltage-clamped at a holding potential of −60 mV in ND96 solution (superfused at 2 ml per min.) and agonists were applied by addition to this extracellular solution. In GIRK experiments the extracellular solution was changed to a high potassium solution prior to agonist application, to facilitate the recording of inward potassium currents. Current-voltage curves were constructed by applying 200 ms voltage-clamp pulses from the holding potential of […] to test potentials between −100 mV and +50 mV.

HA-GABAB-R1b = HA-GABAB-R1b (Homo sapiens, UniProt Q9UBS5); experiment: [3H]-CGP54626 binding, HEK293T membranes expressing HA-GABAB-R1b alone; details: HA-GABAB-R1b expressed alone
Method: Competition binding assays were performed in 50 mM Tris HCl buffer (pH7.4) containing 40 μM isoguvacine (Tocris Cookson) to block rat brain GABAA binding sites. P2 membrane preparations were made from HEK293T cells transfected using conditions described above. […] Assay conditions were 0.4-0.6 nM [^3H]-CGP54626, incubated with 50 μg/tube crude rat brain ‘mitochondrial’ fractions or 25 μg/tube HEK293T P2 membranes at room temperature for 20 minutes.

HA-GABAB-R2 = target: T1, HA-GABAB-R2 (Homo sapiens, UniProt O75899); experiment: [3H]-CGP54626 binding, HEK293T cells transfected with HA-GABAB-R2 alone; details: HA-GABAB-R2 alone (data not shown)
T1 construct: heterodimerisation between full-length expressed GABAB-R1 and GABAB-R2 in mammalian cells; expressed in transfected cells; host or cells: HEK293T
T1 sequence (O75899 42-941): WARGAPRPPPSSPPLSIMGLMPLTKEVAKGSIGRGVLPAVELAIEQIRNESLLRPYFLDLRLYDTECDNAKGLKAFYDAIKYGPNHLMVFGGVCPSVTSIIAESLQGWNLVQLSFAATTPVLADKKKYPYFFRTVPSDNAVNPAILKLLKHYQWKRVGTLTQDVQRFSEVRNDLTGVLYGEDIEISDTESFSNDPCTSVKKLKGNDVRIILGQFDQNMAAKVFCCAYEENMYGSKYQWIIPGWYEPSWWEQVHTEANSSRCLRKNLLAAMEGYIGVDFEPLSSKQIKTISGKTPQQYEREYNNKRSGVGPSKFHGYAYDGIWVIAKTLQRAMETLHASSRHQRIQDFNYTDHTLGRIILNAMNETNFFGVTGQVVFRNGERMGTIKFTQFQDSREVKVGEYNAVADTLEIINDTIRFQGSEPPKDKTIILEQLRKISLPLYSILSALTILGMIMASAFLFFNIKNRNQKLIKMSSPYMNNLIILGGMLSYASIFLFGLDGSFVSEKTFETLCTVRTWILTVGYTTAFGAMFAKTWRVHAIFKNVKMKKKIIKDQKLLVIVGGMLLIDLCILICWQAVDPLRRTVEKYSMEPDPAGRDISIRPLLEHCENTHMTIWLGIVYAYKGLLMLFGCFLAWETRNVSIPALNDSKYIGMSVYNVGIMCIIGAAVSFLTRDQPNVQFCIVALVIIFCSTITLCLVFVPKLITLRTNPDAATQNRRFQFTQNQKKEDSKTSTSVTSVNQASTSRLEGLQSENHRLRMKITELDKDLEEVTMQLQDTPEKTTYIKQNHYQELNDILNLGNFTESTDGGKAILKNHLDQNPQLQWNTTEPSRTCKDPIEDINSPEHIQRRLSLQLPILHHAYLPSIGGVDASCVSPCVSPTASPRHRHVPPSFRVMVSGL
From the text: […]. […] […]

[2] = target: B2; experiment: yeast two hybrid, direct test of the C-termini (β-galactosidase, FIG. 5); GABAB-R2 C-terminal domain also recovered 33 times in the library screen with the GABAB-R1 bait
[3] = target: the molecule itself; experiment: yeast two hybrid, GAL4BD and GAL4AD fusions of the C-termini (FIG. 5); the library screen also did not retrieve the GABAB-R1 C-terminal domain
[4] = target: the molecule itself; experiment: yeast two hybrid, GAL4BD and GAL4AD fusions of the C-termini (FIG. 5)

Chain of HA-GABAB-R1b (Q9UBS5 30-844 isoform Q9UBS5-2 limits assumed): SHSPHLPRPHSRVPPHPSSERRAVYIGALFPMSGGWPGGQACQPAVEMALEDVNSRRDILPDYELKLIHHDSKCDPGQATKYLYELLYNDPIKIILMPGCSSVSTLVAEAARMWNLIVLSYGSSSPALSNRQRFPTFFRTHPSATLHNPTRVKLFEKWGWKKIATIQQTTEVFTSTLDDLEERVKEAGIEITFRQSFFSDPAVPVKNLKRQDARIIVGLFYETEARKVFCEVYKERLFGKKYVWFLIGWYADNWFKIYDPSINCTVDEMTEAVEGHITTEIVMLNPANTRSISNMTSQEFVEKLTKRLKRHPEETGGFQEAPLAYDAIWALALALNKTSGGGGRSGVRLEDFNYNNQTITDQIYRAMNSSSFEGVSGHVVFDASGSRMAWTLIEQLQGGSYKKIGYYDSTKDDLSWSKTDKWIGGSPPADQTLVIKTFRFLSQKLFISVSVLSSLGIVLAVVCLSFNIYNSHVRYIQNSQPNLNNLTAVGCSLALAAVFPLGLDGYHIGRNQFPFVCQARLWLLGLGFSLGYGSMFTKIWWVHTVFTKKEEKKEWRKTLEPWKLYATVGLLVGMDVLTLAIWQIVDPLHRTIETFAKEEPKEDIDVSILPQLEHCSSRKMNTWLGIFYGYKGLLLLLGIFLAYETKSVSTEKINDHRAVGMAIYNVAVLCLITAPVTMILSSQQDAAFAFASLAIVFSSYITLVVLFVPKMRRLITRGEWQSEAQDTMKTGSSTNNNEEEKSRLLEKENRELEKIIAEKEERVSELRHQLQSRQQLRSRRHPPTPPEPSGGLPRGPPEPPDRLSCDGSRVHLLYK

Molecule: NCC(CC(=O)O)c1ccc(Cl)cc1 (centres unmarked) [Baclofen]
Functional response, CFTR or GIRK1/4 current [1]: No functional responses

Molecule: NCCCC(=O)O [GABA, γ-amino-butyric acid]
Functional response, GIRK1/4 current ([1]; GABAB-R1a and GABAB-R1b expressed alone (data not shown)): gave no response to GABA | Functional response, CFTR or GIRK1/4 current [1]: No functional responses

Molecule: C[C@H](NC[C@H](O)CP(=O)(O)CC1CCCCC1)c1ccc(Cl)c(Cl)c1 [[3H]-CGP54626]
Specific binding of radioligand (HA-GABAB-R1b): high levels of specific binding | Specific binding of radioligand (HA-GABAB-R2): unable to detect any [3H]-CGP54626 specific binding

binding result [2]: binds
B1: GABAB-R1 C-terminal domain (C-terminal 108 amino acids of GABAB-R1), GAL4 fusion (receptor, not shown: small tags and cut ends)
chain: VPKMRRLITRGEWQSEAQDTMKTGSSTNNNEEEKSRLLEKENRELEKIIAEKEERVSELRHQLQSRQQLRSRRHPPTPPEPSGGLPRGPPEPPDRLSCDGSRVHLLYK
notes: Used as GAL4BD fusion in the library screen and as both GAL4BD and GAL4AD fusions in the direct test (all combinations); also called GABAB-R1 C-terminus; GAL4BD-GABAB-R1 C-terminus
binding result [3]: no binding

Molecule: B2
binding result [4]: no binding
